Test results taken from patent publication US20180022734A1 (Sound Biopharmaceuticals Ltd., priority 2015, published 2018).

Key:
[1] = Acute toxicity test: maximum tolerance dosage (MTD) determination; type: in vivo, BALB/c mice
Protocol: Methods: Femal BALB/c mice, 4-5 weeks old, weighted greater than 17 g, were used for the test. […] The body weights and conditions of the mice were recorded.
In contrast, the body weights of mice in compound 2 group increased 6.0% in average.
To further explore the toxicity of the compounds, blood was collected after 14-day treatment of drugs and critical biochemical index were analyzed.

cancer cell xenograft = test: Pharmacodynamic tests on mice xenograft transplantation model; type: in vivo
Protocol: (§1) For in vitro tests, compounds were directly dissolved in 10 mM DMSO and stored at −20° C. For in vivo tests, the compounds were dissolved in DMSO and neutralized by Tween 80 (DMSO:Tween=1:1) and further neutralized by PBS (pH 7.4). The final concentrations of DMSO and Tween-80 were 5%.
5×10^6 cancer cells were subcutaneously injected to the right side of mouse. Drug was intraperitoneally injected at dosages of 1.5 mg/kg, 7.5 mg/kg, 30 mg/kg to the mice, once a day, for 2 weeks when average tumor size reached 75 to 150 mm^3. The size of the tumor was measured every other day. […] Compound 1 had less efficacy.
We then performed the test through oral route. 5×10^6 cancer cells were subcutaneously injected to the right side of mouse. Drug was orally administered at dosages of 5 mg/kg, 15 mg/kg, 45 mg/kg to the mice, once a day, for 2 weeks when average tumor size reached 75 to 150 mm^3. The size of the tumor was measured every other day.

[2] = Pharmacokinetics and organ distribution after intravenous administration of Sunitinib, Compound 1 and Compound 2 in mice; design: AUCiv: unit not given beside the values; details: mice
From the text: Relative Exposure(RE)=AUCi sample/AUCi control
AUCi—area under curve for the i^th organ or tissue; RE>1 indicates targeting at the organ or tissue, with larger RE indicating greater targeting; RE≦1 indicates non-targeting.
RTE refers to the multiple of the percent of drug content in a tissue of sample group with respect to total drug amount in the body vs. that in a control group. Positive RTE values indicate enhanced targeting effects and the more positive the more the multiple of enhancement and the more the enhanced targeting. In contrast, negative RTE values indicate reduced targeting effects. Value 0 indicate no influence to the tissue.
0.083 h, 0.25 h, 0.5 h, 1 h, 3 h, 8 h post injection, blood was taken by eyeball removal and the mice were sacrificed by cervical dislocation. Tissues were perfused with normal saline and livers and kidneys were removed and cleaned with normal saline. The blood samples were centrifuged to obtain supernatants and stored at −20° C. 50 μL plasma sample and 50 μL internal standard (clozapine) working solution was vortexed with 300 μL MeOH and then centrifuged. 150 μL upper organic phase was obtained and mixed with 150 μL water, followed by centrifugation. 10 μL supernatant was sampled for analysis. The tissue samples were weighted and mixed homogeneously with 10 times weight of water. Since the samples were 10-time diluted, the concentration of the tissue would be 10 times the results determined. The heart tissue was 5-time diluted. 100 μL homogenate was mixed with 50 μL internal standard (clozapine) working solution and 300 μL MeOH and then centrifuged. 150 μL upper organic phase was obtained and mixed with 150 μL water, followed by centrifugation. 10 μL supernatant was sampled for analysis.

786-O cell or A549 cell = test: Cell morphology and survival rate after 4 to 8 hours incubation; type: cell-based, human
[3] = Stability of compounds 1 and 2 in MeOH stock solution and with biomass; type: physicochemical
From the text: No prodrug was detected in organs except for spleen during processing. […] The prodrugs may be converted to Sunitinib or other metabolite during processing or in vivo.

[4] = system: A549; NCI-H460; 786-O; Caki-1; HT-29; MCF-7; test: 72 hour cytotoxicity (CCK8) in different cell lines; type: cell-based, human; details: 72 hours, CCK8; FIG. 5a-f
From the text: A549 human non-small cell lung cancer cell line, NCI-H460 human non-small cell lung cancer cell line, 786-O human renal cell line, Caki-1 human renal cell line, HT-29 human colon cancer cell line, MDA-MB-231 human breast cancer cell line, and MCF-7 human breast cancer cell line was purchased from Chinese Academy of Science Shanghai Branch. PLC/PRF-5 human hepatoma cell line and Hepal-6 mouse hepatoma cell line were obtained from Institute of Biochemistry and Cell Biology, SIBS, CAS (SIBCB). Cell lines A549, Caki-1, HT-29, MDA-MB-231, MCF-7, PLC/PRF-5 and Hepal-6 were cultured in DMEM medium (Gibco, Life Technologies, China) and cell lines NCI-H460 and 786-O were cultured in RPMI-1640 medium (Gibco, Life Technologies, China). 10% HI fetal bovine serum was purchased from Gibco, Life Technologies, USA and 1% penicillin/streptomycin was obtained from Hyclone.
Approx. 2,000 cells in 50 μL complete medium were plated on each well of a 96-well plate and incubated at 37° C., 5% CO2 overnight. Drugs at concentrations of 0.02 to 10 μM were dissolved in 0.1% DMSO, followed by addition into each well. After incubation for 72 hours, 10 μL CCK8 (Dojindo) was added into each well, followed by incubation at 37° C. for another 4 hours. The OD values were obtained by TECAN Microplate Reader at 450 nm.
as §1

[5] = Oral route (intragastric gavage) study of Sunitinib and compounds 1 and 2 in mice; type: in vivo; design: AUCpo: unit not given beside the values; details: mice, intragastric gavage
From the text: Animal experiments: 24 mice in each group were divided into 8 sub-groups.

pSTAT3 = test: Effects on STAT3 phosphorylation in A549 cell line; type: cell-based, human; details: 10 μM
Protocol: as §1

[6] = oral once a day for 14 days, 175 mg/kg
[7] = repeated test, oral once a day, 200 mg/kg
[8] = 5.13 mg/kg Compound 1, 5.32 mg/kg Compound 2, 5.14 mg/kg Sunitinib malate, All (sum of organs and plasma)
[9] = 5.13 mg/kg Compound 1, 5.32 mg/kg Compound 2, 5.14 mg/kg Sunitinib malate, heart
[10] = 5.13 mg/kg Compound 1, 5.32 mg/kg Compound 2, 5.14 mg/kg Sunitinib malate, kidney
[11] = 5.13 mg/kg Compound 1, 5.32 mg/kg Compound 2, 5.14 mg/kg Sunitinib malate, liver
[12] = 5.13 mg/kg Compound 1, 5.32 mg/kg Compound 2, 5.14 mg/kg Sunitinib malate, lung
[13] = 5.13 mg/kg Compound 1, 5.32 mg/kg Compound 2, 5.14 mg/kg Sunitinib malate, plasma
[14] = 5.13 mg/kg Compound 1, 5.32 mg/kg Compound 2, 5.14 mg/kg Sunitinib malate, spleen
[15] = 19.248 mg/kg Compound 1, 20 mg/kg Compound 2, 20 mg/kg Sunitinib malate

CCN(CC)CCNC(=O)c1c(C)[nH]c(C=C2C(=O)N(CC(=O)Oc3ccccc3)c3ccc(F)cc32)c1C [Compound 2, N-[2-(diethylamino)ethyl]-5-[(5-fluoro-2-oxo-1-(phenylcarboxymethyl)-2,3-indolin-3-ylmethylene)]-2,4-dimethyl-1H-pyrrolidine-3-carboxamide]
critical biochemical index (AST, ALT, CHE, urate, blood urea nitrogen, glucose, LDH, CK, CKMB) ([1]; blood after 14-day treatment, 200 mg/kg): except for AST and ALT, these indices were all within normal ranges | body weights increased in average [1, 6]: 6.0% | condition of the mice [1, 6]: performed similarly with negative control group | influence on body weight ([1]; repeated test, oral once a day, 100 mg/kg): little influence on body weight | body weights increased in average [1, 7]: 6.0% | condition of the mice [1, 7]: performed similarly with negative control group | efficacy on tumor size (cancer cell xenograft; intraperitoneally injected 1.5, 7.5, 30 mg/kg once a day for 2 weeks): improved efficacy than Sunitinib | efficacy on tumor size (cancer cell xenograft; orally administered 5, 15, 45 mg/kg once a day for 2 weeks): improved efficacy than Sunitinib | AUC [2, 8]: 3926.9 ng·h/mL | Cmax [2, 8]: 2673.1 ng/mL | AUC [2, 9]: 97.0 ng·h/mL | Cmax [2, 9]: 122.4 ng/mL | AUC [2, 10]: 474.2 ng·h/mL | Cmax [2, 10]: 258.0 ng/mL | AUC [2, 11]: 1047.1 ng·h/mL | Cmax [2, 11]: 742.7 ng/mL | AUC [2, 12]: 1235.0 ng·h/mL | Cmax [2, 12]: 763.8 ng/mL | AUC [2, 13]: 408.8 ng·h/mL | AUCall [2, 13]: 408.8 ng·h/mL | Cl [2, 13]: 324.9 mL/h | Cmax [2, 13]: 564.4 ng/mL | Tmax [2, 13]: 4.8 min | V [2, 13]: 406.1 mL | AUC [2, 14]: 664.8 ng·h/mL | Cmax [2, 14]: 221.8 ng/mL | AUCiv ([2]; Div 3.86, in ng·h/mL): 408.8 | Cmax, times than that of the control ([2]; control = Sunitinib): approx. 5 times | RTE analysis: distribution proportions in organs ([2]; vs Sunitinib control): increased distribution proportions in spleen and lung, decreased proportions in heart and kidney but great enhancement in plasma | RE ([2]; vs Sunitinib control, heart): 0.13 | RTE ([2]; vs Sunitinib control, heart): −0.55 | RE ([2]; vs Sunitinib control, kidney): 0.16 | RTE ([2]; vs Sunitinib control, kidney): −0.45 | RE ([2]; vs Sunitinib control, liver): 0.47 | RTE ([2]; vs Sunitinib control, liver): 0.66 | RE ([2]; vs Sunitinib control, lung): 0.28 | RTE ([2]; vs Sunitinib control, lung): −0.01 | RE ([2]; vs Sunitinib control, plasma): 1.12 | RTE ([2]; vs Sunitinib control, plasma): 2.93 | RE ([2]; vs Sunitinib control, spleen): 0.22 | RTE ([2]; vs Sunitinib control, spleen): −0.23 | cell survival (786-O cell or A549 cell; 786-O cell or A549 cell, incubated for 8 hours): mass cell death | cell morphology (786-O cell or A549 cell; cancer cells incubated for 4 hours): changed to round and suffered from stress | stability in the event of coexisting with biomass ([3]; coexisting with biomass): easy to degrade | stability in MeOH stock solution ([3]; stability test period: 7 days): stable | IC50 values among several cell lines [4]: comparable | tumor killing effects / cytotoxicity [4]: relatively strong tumor killing effects | AUC, times higher than Sunitinib [5]: approx. 3.5 times | AUC0→∞ [5, 15]: 61.5 ng·h/mL | Cl [5, 15]: 4094.7 mL/h | Cmax [5, 15]: 27.00 ng/mL | Tmax [5, 15]: 1.50 h | t1/2 [5, 15]: 3.89 h | AUCpo ([5]; Dpo 15.00, in ng·h/mL): 951.1 | inhibition of pSTAT3 (pSTAT3): strong inhibition
